Measured values taken from patent publication US10899737B2, “Piperazine carbamates and methods of making and using same” (Lundbeck La Jolla Research Center, Inc., priority 2016, dated 2021).

Columns and labels:
[1] = target: T1, MAGL (Homo sapiens, UniProt Q99685); experiment: In vitro competitive activity-based protein profiling (human), MAGL; assay type: biochemical; conditions: for inhibition at 1 µM: 1 μM inhibitor, human proteome, 30 min preincubation at 37° C, read-out: MAGL % inh. 1 μM (human); for IC50: human PC3
T1 construct: Proteomes (human prefrontal cortex or cell membrane fractions); from tissue
T1 sequence (Q99685 1-303): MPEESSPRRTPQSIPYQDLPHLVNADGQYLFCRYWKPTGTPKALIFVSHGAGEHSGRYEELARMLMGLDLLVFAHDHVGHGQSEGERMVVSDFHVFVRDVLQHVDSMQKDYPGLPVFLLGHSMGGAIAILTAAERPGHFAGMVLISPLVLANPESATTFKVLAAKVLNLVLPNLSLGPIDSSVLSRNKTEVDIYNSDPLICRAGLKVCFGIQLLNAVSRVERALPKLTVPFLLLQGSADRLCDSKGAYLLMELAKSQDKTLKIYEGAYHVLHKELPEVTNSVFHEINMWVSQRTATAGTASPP
Outline: (§1)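 Human prefrontal cortex or cell membrane proteomes (1.0-2.0 mg/mL protein) preincubated 30 min at 37° C with inhibitor, then labeled 30 min RT with FP-Rh or JW912 probe. After SDS-PAGE, activity taken from fluorescent band intensity for each enzyme.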

[2] = target: T2, ABHD6 (Mus musculus, UniProt Q8R2Y0); experiment: In vitro competitive activity-based protein profiling (mouse), ABHD6; assay type: biochemical; conditions: 1 μM inhibitor, mouse brain membrane fraction or cell lysates; read-out: ABHD6 % inh. 1 μM (mouse)
T2 construct: Proteomes (mouse brain membrane fraction or cell lysates); from tissue; host or cells: mouse brain membrane fraction or cell lysates
T2 sequence (Q8R2Y0 1-336): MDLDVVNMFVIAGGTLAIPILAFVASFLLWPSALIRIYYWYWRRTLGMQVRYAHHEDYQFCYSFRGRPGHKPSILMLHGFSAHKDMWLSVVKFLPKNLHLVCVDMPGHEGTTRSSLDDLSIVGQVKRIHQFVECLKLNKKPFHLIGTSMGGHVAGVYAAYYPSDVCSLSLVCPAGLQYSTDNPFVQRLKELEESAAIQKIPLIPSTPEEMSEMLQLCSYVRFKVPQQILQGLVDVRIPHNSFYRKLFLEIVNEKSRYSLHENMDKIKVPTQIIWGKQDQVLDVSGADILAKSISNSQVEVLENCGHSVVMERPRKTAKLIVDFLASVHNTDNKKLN
Outline: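 Mouse brain membrane proteome or cell lysate (1.0 mg/mL protein) preincubated 30 min at 37 °C with inhibitor, then labelled 30 min at 37 °C with FP-rhodamine probe. Remaining MAGL and ABHD6 activity quantified by in-gel fluorescence band intensity after SDS-PAGE; values are % inhibition at 1 μM.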

[3] = target: T3, MAGL (Mus musculus, UniProt O35678); experiment: Mouse brain proteomes from inhibitor treated mice, MAGL inhibition; assay type: in vivo; conditions: 5 mg/kg oral gavage, C57Bl/6J mouse brain, 4 h following administration; read-out: MAGL % inh. 5 mg/kg (mouse)
T3 construct: Proteomes (mouse brain membrane fraction or cell lysates); from tissue; host or cells: mouse brain membrane fraction or cell lysates
T3 sequence (O35678 1-303): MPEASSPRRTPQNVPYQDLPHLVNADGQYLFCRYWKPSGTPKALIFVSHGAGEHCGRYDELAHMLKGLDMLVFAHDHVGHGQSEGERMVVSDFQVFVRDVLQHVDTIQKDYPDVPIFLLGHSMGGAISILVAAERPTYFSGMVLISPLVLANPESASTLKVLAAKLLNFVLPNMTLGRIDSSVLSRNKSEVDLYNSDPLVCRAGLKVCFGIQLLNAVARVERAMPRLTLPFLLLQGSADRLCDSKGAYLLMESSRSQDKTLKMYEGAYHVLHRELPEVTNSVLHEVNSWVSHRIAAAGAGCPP
Protocol: Preparation of Mouse Brain Proteomes from Inhibitor Treated Mice.
Inhibitors were administered to wild-type C57Bl/6J by oral gavage in a vehicle of polyethylene glycol. Each animal was sacrificed 4 h following administration and brain proteomes were prepared and analyzed according to previously established methods (See Niphakis, M. J., et al. (2011) ACS Chem. Neurosci. and Long, J. Z., et al. Nat. Chem. Biol. 5:37-44).

[4] = target: T4, ABHD6 (Homo sapiens, UniProt Q9BV23); experiment: In vitro competitive activity-based protein profiling (human), ABHD6; assay type: biochemical; conditions: human PC3
T4 construct: Proteomes (human prefrontal cortex or cell membrane fractions); endogenous in cells; human prefrontal cortex
T4 sequence (Q9BV23 1-337): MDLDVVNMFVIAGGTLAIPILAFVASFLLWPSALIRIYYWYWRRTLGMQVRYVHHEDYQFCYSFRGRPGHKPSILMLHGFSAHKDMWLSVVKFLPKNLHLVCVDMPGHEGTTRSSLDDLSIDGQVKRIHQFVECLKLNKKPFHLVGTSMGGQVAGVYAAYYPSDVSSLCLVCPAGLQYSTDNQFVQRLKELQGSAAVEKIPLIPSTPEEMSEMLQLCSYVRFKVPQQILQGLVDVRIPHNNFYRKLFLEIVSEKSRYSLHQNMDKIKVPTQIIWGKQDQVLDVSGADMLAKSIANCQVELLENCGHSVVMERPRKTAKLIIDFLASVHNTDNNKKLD
Outline: as §1

[5] = target: T3, MAGL; experiment: In vitro competitive activity-based protein profiling (mouse), MAGL; assay type: biochemical; conditions: for inhibition at 1 µM: 1 μM inhibitor, mouse brain membrane fraction or cell lysates, read-out: MAGL % inh. 1 μM (mouse); for IC50: mouse proteome
Outline: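 Mouse brain membrane fraction or cell lysate proteomes (50 μL, 1.0 mg/mL total protein) were preincubated with inhibitors at varying concentrations for 30 min at 37° C. FP-Rh (1.0 μL, 50 μM in DMSO) was then added for a further 30 min at 37° C. Samples were quenched with 4× SDS loading buffer and resolved by SDS-PAGE. MAGL activity was quantified from fluorescent gel band intensity using ImageJ 1.49 k.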

Row | Structure (SMILES) | inhibition at 1 µM [1] | IC50 [1] | inhibition at 1 µM [2] | inhibition at 5 mg/kg [3] | IC50 [4] | inhibition at 1 µM [5] | IC50 [5]
1 | O=C(O)CN1CC2(CCN(c3cc(C(F)(F)F)ccc3CN3CCN(C(=O)OC(C(F)(F)F)C(F)(F)F)CC3)C2)C1 [Example 22, 2-(6-(2-((4-(((1,1,1,3,3,3-Hexafluoropropan-2-yl)oxy)carbonyl)piperazin-1-yl)methyl)-5-(trifluoromethyl)phenyl)-2,6-diazaspiro[3.4]octan-2-yl)acetic Acid] | ≥ 75% | ≤ 0.1 µM | 0 to 25% | 0 to 25% | 1 to 10 µM | ≥ 75% | 
2 | O=C(O)CN1CCC2(C1)CN(c1cc(C(F)(F)F)ccc1CN1CCN(C(=O)OC(C(F)(F)F)C(F)(F)F)CC1)C2 [Example 23, 2-(2-(2-((4-(((1,1,1,3,3,3-Hexafluoropropan-2-yl)oxy)carbonyl)piperazin-1-yl)methyl)-5-(trifluoromethyl)phenyl)-2,6-diazaspiro[3.4]octan-6-yl)acetic Acid] | ≥ 75% | ≤ 0.1 µM | 0 to 25% | 0 to 25% | 1 to 10 µM | ≥ 75% | 
3 | O=C(O)CN1CCCC12CN(c1cc(C(F)(F)F)ccc1CN1CCN(C(=O)OC(C(F)(F)F)C(F)(F)F)CC1)C2 [Example 24, 2-(2-(2-((4-(((1,1,1,3,3,3-Hexafluoropropan-2-yl)oxy)carbonyl)piperazin-1-yl)methyl)-5-(trifluoromethyl)phenyl)-2,5-diazaspiro[3.4]octan-5-yl)acetic Acid] | ≥ 75% | ≤ 0.1 µM | 0 to 25% | ≥ 75% | 1 to 10 µM | ≥ 75% | ≤ 0.1 µM
4 | O=C(O)CN1CC2CC1CN2c1cc(C(F)(F)F)ccc1CN1CCN(C(=O)OC(C(F)(F)F)C(F)(F)F)CC1 (stereo not shown) [Example 25, 2-(5-(2-((4-(((1,1,1,3,3,3-Hexafluoropropan-2-yl)oxy)carbonyl)piperazin-1-yl)methyl)-5-(trifluoromethyl)phenyl)-2,5-diazabicyclo[2.2.1]heptan-2-yl)acetic Acid] | ≥ 75% | ≤ 0.1 µM | 0 to 25% | 0 to 25% | 1 to 10 µM | ≥ 75% | 
5 | O=C(OC(C(F)(F)F)C(F)(F)F)N1CCN(Cc2ccc(Cl)cc2C2(C(=O)O)CCCC2)CC1 [Example 26, 1-(5-Chloro-2-((4-(((1,1,1,3,3,3-hexafluoropropan-2-yl)oxy)carbonyl)piperazin-1-yl)methyl)phenyl)cyclopentane-1-carboxylic Acid] | ≥ 75% | ≤ 0.1 µM | 0 to 25% | ≥ 75% | 1 to 10 µM | ≥ 75% | 
6 | O=C(OC(C(F)(F)F)C(F)(F)F)N1CCN(Cc2ccc(C(F)F)cc2C2(C(=O)O)CCCC2)CC1 [Example 27, 1-(5-(Difluoromethyl)-2-((4-(((1,1,1,3,3,3-hexafluoropropan-2-yl)oxy)carbonyl)piperazin-1-yl)methyl)phenyl)cyclopentane-1-carboxylic Acid] | ≥ 75% | ≤ 0.1 µM | 0 to 25% | ≥ 75% | 1 to 10 µM | ≥ 75% | 
7 | O=C(O)CN1CCC(c2cc(C(F)(F)F)ccc2CN2CCN(C(=O)OC(C(F)(F)F)C(F)(F)F)CC2)CC1 [Example 31, 2-(4-(2-((4-(((1,1,1,3,3,3-Hexafluoropropan-2-yl)oxy)carbonyl)piperazin-1-yl)methyl)-5-(trifluoromethyl)phenyl)piperidin-1-yl)acetic Acid] | ≥ 75% | 0.1 to 1 µM | 0 to 25% | 0 to 25% | 1 to 10 µM | ≥ 75% | 
8 | O=C(O)C1CCN(C(=O)c2cc(C(F)(F)F)ccc2CN2CCN(C(=O)OC(C(F)(F)F)C(F)(F)F)CC2)CC1 [Example 35, 1-(2-((4-(((1,1,1,3,3,3-Hexafluoropropan-2-yl)oxy)carbonyl)piperazin-1-yl)methyl)-5-(trifluoromethyl)benzoyl)piperidine-4-carboxylic Acid] | ≥ 75% | 0.1 to 1 µM | 0 to 25% | 0 to 25% | 1 to 10 µM | ≥ 75% | 0.1 to 1 µM
9 | O=C(OC(C(F)(F)F)C(F)(F)F)N1CCN(Cc2ccccc2C2(C(=O)O)CCCC2)CC1 [Example 36, 1-(2-((4-(((1,1,1,3,3,3-hexafluoropropan-2-yl)oxy)carbonyl)piperazin-1-yl)methyl)phenyl)cyclopentane-1-carboxylic acid] | ≥ 75% | ≤ 0.1 µM | 0 to 25% | ≥ 75% | 1 to 10 µM | ≥ 75% | 
10 | O=C(OC(C(F)(F)F)C(F)(F)F)N1CCN(Cc2ccc(F)cc2C2(C(=O)O)CCCC2)CC1 [Example 40, 1-(5-fluoro-2-((4-(((1,1,1,3,3,3-hexafluoropropan-2-yl)oxy)carbonyl)piperazin-1-yl)methyl)phenyl)cyclopentane-1-carboxylic acid] | ≥ 75% | ≤ 0.1 µM | 0 to 25% | ≥ 75% | 1 to 10 µM | ≥ 75% | 
11 | O=C(O)CC1CCN(c2cc(C(F)(F)F)ccc2CN2CCN(C(=O)OC(C(F)(F)F)C(F)(F)F)CC2)CC1 [Example 43, 2-(1-(2-((4-(((1,1,1,3,3,3-hexafluoropropan-2-yl)oxy)carbonyl)piperazin-1-yl)methyl)-5-(trifluoromethyl)phenyl)piperidin-4-yl)acetic acid] | ≥ 75% | ≤ 0.1 µM | ≥ 75% | ≥ 75% | 1 to 10 µM | ≥ 75% | 
12 | O=C(OC(C(F)(F)F)C(F)(F)F)N1CCN(Cc2cccc(Cl)c2C2(C(=O)O)CCCC2)CC1 [Example 44, 1-(2-chloro-6-((4-(((1,1,1,3,3,3-hexafluoropropan-2-yl)oxy)carbonyl)piperazin1-yl)methyl)phenyl)cyclopentane-1-carboxylic acid] |  | ≤ 0.1 µM | 50 to 75% | ≥ 75% | 1 to 10 µM | ≥ 75% | 
